This is an account of results in patent US20260315434A1, “USE OF GUAIACOL SESQUITERPENE LACTONE DERIVATIVES” (NANJING UNIVERSITY OF CHINESE MEDICINE, priority 2023, published 2026).

Series [1] is described as follows: Water solubility testing of compounds (HPLC). Particulars: deionized water, 37 °C.
The test system of the next series is T cells / MDSCs. As to the kind of experiment: Promotion of T cell proliferation in a co-culture model of MDSCs and T cells. The class given is cell-based, mouse. Particulars: for activation at 1 µM: Mus musculus, T-cell, 12 h, read-out: T-cell proliferation rate (%), 1 μM, MDSCs treated 12 hours, co-culture of MDSCs and T cells, compared to the control group. As to the method:
Under sterile conditions, the tibia was removed, both ends of the bone were cut, and bone marrow was repeatedly flushed into a 15 mL centrifuge tube using a 1 mL syringe filled with culture medium. Centrifuge at 1600 rpm for 5 min to collect bone marrow cells. […] The spleen cell suspension was then transferred into a 15 mL centrifuge tube. Centrifuge at 1600 rpm for 5 min to collect T cells. Wash twice with 1×PBS. Resuspend the centrifuged T cells in 1 mL PBS and add 1 mL of 10 μM CFDA-SE solution. Incubate at room temperature for 8 min. […] After drug administration, collect MDSC cells into centrifuge tubes. Centrifuge at 1600 rpm for 5 min, remove supernatant, resuspend in 1 mL fresh medium, and plate. Add 1 mL stimulated activated T cells (1:1 ratio) for 48 h co-culture. After incubation, collect cells into centrifuge tubes, wash twice with PBS, and incubate with Fc antibody at room temperature in the dark for 10 min. Add CD3-labeled flow cytometry antibody and incubate at 4° C. in the dark for 30 min. After incubation, wash cells with PBS, resuspend in 300 μL PBS, and analyze by flow cytometry.

Series [2] is described as follows: Conversion (release) of prodrug salts to parent compound in HEPES buffer pH 7.4. The class given is in vitro ADME. Particulars: hepes buffer, pH 7.4, HEPES pH 7.4, 37 °C, read-out: Release rate (conversion to Compound 1). How it is done:
(§1) Pharmaceutically acceptable salts of guaiane-type sesquiterpene lactone derivatives were selected and evaluated for their conversion rates to Compound 1 and Compound 83 in plasma and HEPES buffer, with results shown in Tables 2-1, 2-2, 3-1, and 3-2.
Experimental Method: Preparation of HEPES 7.4 Solution: Dissolve 1.6 g NaCl, 0.074 g KCl, 0.027 g Na2HPO4, 0.2 g glucose, and 1 g 4-(2-Hydroxyethyl)piperazine-1-ethanesulfonic acid (HEPES) solution in 90 mL distilled water. Adjust the pH to 7.4 using 0.5 M NaOH, then dilute to a final volume 100 mL with distilled water.
(§2) Sample Analysis: Dissolve 0.6 mg of the compound in 250 μL of deionized water separately. Add 250 μL of mouse serum or HEPES 7.4 solution to the sample, incubate at a constant temperature of 37° C., and collect samples at different time points. Pipette 20 μL of the sample to an EP tube, add 60 μL of methanol, vortex to mix thoroughly, and centrifuge at 12,000 rpm at 4° C. for 10 min. At 1 h, 2 h, 4 h, 8 h, and 12 h respectively, collect the supernatant for HPLC analysis. Inject 10 μL of sample and record the corresponding peak areas. Chromatographic conditions: Hanbang C18 column (4.6×250 mm, 5 μm); mobile phase: acetonitrile: […] ammonium formate solution=60:40; flow rate 1.0 mL/min; detection wavelength 210 nm; column temperature 30° C.

Series [3] is described as follows: Conversion (release) of prodrug salts to parent compound in mouse plasma. Particulars: mouse, plasma, 37 °C, read-out: Release rate (conversion to Compound 1). Type of series: in vitro ADME. As to the method:
as §1
Plasma Preparation: Collect mouse plasma into an EP tube pre-loaded with sodium heparin, centrifuge at 8000 rpm for 10 minutes at 4° C., and then collect the supernatant.
as §2

Consider `C[C@@]12CC[C@@H]3[C@H](OC(=O)[C@H]3CN3CCCC3)[C@@H]3[C@]1(CC[C@@]3(C)O)C2` [Compound 3], for which the Water-solubility in series [1] was determined as 1.305 mg/mL. Besides, the activation at 1 µM with T cells / MDSCs was in the range of 20 to 40%.
The corresponding values for `C[C@@]12CC[C@@H]3[C@H](OC(=O)[C@H]3CN3CCCCC3)[C@@H]3[C@]1(CC[C@@]3(C)O)C2` [Compound 5] are 0.730 mg/mL and 20 to 40%.
The corresponding values for `C[C@@]12CC[C@@H]3[C@H](OC(=O)[C@H]3CN3CCOCC3)[C@@H]3[C@]1(CC[C@@]3(C)O)C2` [Compound 6] are 0.668 mg/mL and 0 to 20%.
In the case of `CCOC(=O)[C@@H]1CCCN1C[C@@H]1C(=O)O[C@H]2[C@H]1CC[C@@]1(C)C[C@]13CC[C@@](C)(O)[C@H]23` [Compound 23], in series [1], the Water-solubility amounted to 362.3 mg/mL. Moreover, in series [2], the degraded at 1 h turned out to be 6.2%, the degraded at 2 h came to 14.3%, the degraded at 4 h worked out at 26.8% and the degraded at 8 h is 41.1%. In series [2], the degraded at 12 h amounted to 52.8%. For the same compound, in the series on T cells / MDSCs (1 μM, MDSCs treated 12 hours, co-culture of MDSCs and T cells, compared to the control group), the “T-cell proliferation rate (%)” value is listed as “+ (T-cell proliferation rate within the 0-20% range compared to the control group)”. Besides, in series [3], the metabolised at 1 h stood at 7.2%, the metabolised at 2 h is 14.3%, the metabolised at 4 h was found to be 26.8% and the metabolised at 8 h is 45.1%. Also, the metabolised at 12 h in series [3] was 52.8%.
`CCCCN(CCCC)C[C@@H]1C(=O)O[C@H]2[C@H]1CC[C@@]1(C)C[C@]13CC[C@@](C)(O)[C@H]23` [Compound 30] showed a Water-solubility in series [1] of 228.4 mg/mL. For the same compound, in series [2], the degraded at 1 h is 6.6%, the degraded at 2 h was 14.6%, the degraded at 4 h is 23.8% and the degraded at 8 h stood at 40.8%. In addition, the degraded at 12 h in series [2] was determined as 49.8%. In addition, in series [3], the metabolised at 1 h was determined as 6.6%, the metabolised at 2 h is 13.6%, the metabolised at 4 h stood at 23.8% and the metabolised at 8 h is 40.8%. The metabolised at 12 h in series [3] is 48.8%.
Take `CC(C)N(C[C@@H]1C(=O)O[C@H]2[C@H]1CC[C@@]1(C)C[C@]13CC[C@@](C)(O)[C@H]23)C(C)C` [Compound 31]: in series [1], the Water-solubility was found to be 254.6 mg/mL. Moreover, in series [2], the degraded at 1 h turned out to be 6.7%, the degraded at 2 h was determined as 14%, the degraded at 4 h is 23% and the degraded at 8 h amounted to 41.2%. In addition, in series [2], the degraded at 12 h was 49.5%. In addition, in series [3], the metabolised at 1 h turned out to be 6.5%, the metabolised at 2 h was determined as 13.9%, the metabolised at 4 h worked out at 24.4% and the metabolised at 8 h came out at 40.2%. The metabolised at 12 h in series [3] came to 48.5%.
On to `C[C@@]12CC[C@@H]3[C@H](OC(=O)[C@H]3CN3CC4CCCC4C3)[C@@H]3[C@]1(CC[C@@]3(C)O)C2` (stereo partly drawn) [Compound 32], for which the Water-solubility in series [1] is listed as 100.8 mg/mL. Also, in series [2], the degraded at 1 h came out at 6.9%, the degraded at 2 h worked out at 15.4%, the degraded at 4 h is 26.2% and the degraded at 8 h amounted to 42.2%. Besides, the degraded at 12 h in series [2] was found to be 51.2%. Further, in series [3], the metabolised at 1 h stood at 6.3%, the metabolised at 2 h was determined as 14.4%, the metabolised at 4 h is 25.2% and the metabolised at 8 h came out at 43.2%. Also, the metabolised at 12 h in series [3] turned out to be 51.4%.
`C[C@@]12CC[C@@H]3[C@H](OC(=O)[C@H]3CN3CCC3)[C@@H]3[C@]1(CC[C@@]3(C)O)C2` [Compound 33]: the Water-solubility in series [1] is listed as 145.5 mg/mL. In series [2], the degraded at 1 h amounted to 6.9%, the degraded at 2 h is 15.8%, the degraded at 4 h turned out to be 26% and the degraded at 8 h worked out at 41.8%. In addition, the degraded at 12 h in series [2] is 51.1%. Further, in series [3], the metabolised at 1 h came to 6.9%, the metabolised at 2 h was found to be 14.8%, the metabolised at 4 h is 26% and the metabolised at 8 h was 42.8%. For the same compound, the metabolised at 12 h in series [3] is 50.7%.
As for `C[C@@]12CC[C@@H]3[C@H](OC(=O)[C@H]3CN3CCC4(CCCC4)CC3)[C@@H]3[C@]1(CC[C@@]3(C)O)C2` [Compound 34], the Water-solubility in series [1] is on record as 128.6 mg/mL. Also, in series [2], the degraded at 1 h was 7%, the degraded at 2 h was 16.2%, the degraded at 4 h amounted to 27.6% and the degraded at 8 h was found to be 43.6%. For the same compound, the degraded at 12 h in series [2] was determined as 54.4%. For the same compound, in series [3], the metabolised at 1 h was determined as 7.8%, the metabolised at 2 h worked out at 17.2%, the metabolised at 4 h stood at 28.6% and the metabolised at 8 h turned out to be 47.6%. For the same compound, in series [3], the metabolised at 12 h is 58.8%.
`C[C@@]12CC[C@@H]3[C@H](OC(=O)[C@H]3CN3CCC(N4CCCCC4)CC3)[C@@H]3[C@]1(CC[C@@]3(C)O)C2` [Compound 35]: the Water-solubility in series [1] came out at 212.6 mg/mL. For the same compound, in series [2], the degraded at 1 h came to 6.8%, the degraded at 2 h worked out at 14.6%, the degraded at 4 h worked out at 26.4% and the degraded at 8 h was found to be 43.8%. In addition, the degraded at 12 h in series [2] was 52.5%. Also, in series [3], the metabolised at 1 h was found to be 6.8%, the metabolised at 2 h is 13.6%, the metabolised at 4 h worked out at 26.4% and the metabolised at 8 h turned out to be 44.8%. Further, the metabolised at 12 h in series [3] was 52.5%.
`C[C@@]12CC[C@@H]3[C@H](OC(=O)[C@H]3CN3CCC(N4CCOCC4)CC3)[C@@H]3[C@]1(CC[C@@]3(C)O)C2` [Compound 36] displayed a Water-solubility in series [1] of 234.6 mg/mL. In series [2], the degraded at 1 h came out at 6.9%, the degraded at 2 h was found to be 14.8%, the degraded at 4 h came to 26% and the degraded at 8 h came out at 43.6%. Moreover, in series [2], the degraded at 12 h was 52.4%. In series [3], the metabolised at 1 h stood at 6.6%, the metabolised at 2 h is 14.8%, the metabolised at 4 h is 26% and the metabolised at 8 h stood at 43.6%. For the same compound, the metabolised at 12 h in series [3] was 52.1%.
For the compound `C[C@@]12CC[C@@H]3[C@H](OC(=O)[C@H]3CN3CCC4(CC3)CC4)[C@@H]3[C@]1(CC[C@@]3(C)O)C2` [Compound 37], in series [1], the Water-solubility came to 357.5 mg/mL. In series [2], the degraded at 1 h stood at 7.2%, the degraded at 2 h was 16.8%, the degraded at 4 h was 28.3% and the degraded at 8 h was determined as 44.1%. In series [2], the degraded at 12 h was determined as 65.8%. In addition, in series [3], the metabolised at 1 h was 8.2%, the metabolised at 2 h turned out to be 17.8%, the metabolised at 4 h was 29.3% and the metabolised at 8 h came to 48.1%. Further, the metabolised at 12 h in series [3] is 67.8%.
`C[C@@]12CC[C@@H]3[C@H](OC(=O)[C@H]3CN3CCCCCCC3)[C@@H]3[C@]1(CC[C@@]3(C)O)C2` [Compound 38] yielded a Water-solubility in series [1] of 250.9 mg/mL. In series [2], the degraded at 1 h turned out to be 6.9%, the degraded at 2 h is 14.8%, the degraded at 4 h worked out at 25.4% and the degraded at 8 h turned out to be 41.4%. The degraded at 12 h in series [2] amounted to 50.7%. In addition, in series [3], the metabolised at 1 h was determined as 6.1%, the metabolised at 2 h was found to be 14.5%, the metabolised at 4 h was 25.4% and the metabolised at 8 h was found to be 41.4%. For the same compound, in series [3], the metabolised at 12 h came out at 49.7%.
